# Source: patent US20040023994A1 (priority 2002, published 2004)
# Read-outs that look alike come from different tables or passages of the source. Marks after values point to notes of the source that are not given here.
# How the values were obtained:
# SK-MEL-28 = conditions: for CC50: read-out: LC50
# HCT-116 [1] = conditions: for CC50: read-out: LC50
# HOP-92 = conditions: for CC50: read-out: LC50
# SK-MEL-2 [2] = conditions: for CC50: read-out: LC50
# MDA-N [3] = format: cell-based; conditions: Breast, 48 h
# U251 [4] = conditions: for CC50: read-out: LC50
# UACC-62 = conditions: for CC50: read-out: LC50
# NCI/ADR-RES [5] = test system: NCI/ADR-RES
# [6] = test system: Heterozygous nude CD-1 male mice; experiment: Liver function (AST, ALT in plasma) and liver histopathology in treated mice
# Protocol: Heterozygous nude CD-1 male mice were treated (i.p.) with multiple doses consisting of either one dose daily for three consecutive days (cis-AVTP or trans-AVTG, 21.25 μmol/kg, 6-TG, 8.5 or 21.25 μmol/kg, or vehicle; one cycle), or one dose daily for three consecutive days, repeated again five days later (cis-AVTP, trans-AVTG or 6-TG, 8.5 or 21.25 μmol/kg, or vehicle; two cycles).
# The mice were sacrificed 24 h after the last treatment. Urine was collected for 24 h before initiation of treatment and every 24 h thereafter until the mice were sacrificed. Blood was collected by cardiac puncture and blood cells counted. Sections of liver, kidney, intestines, stomach and sternum were stained with hematoxylin and eosin and subjected to pathological analysis. Bone marrow smears were prepared for assessment of bone marrow cellularity. Liver function was evaluated by measuring alanine aminotransferase-(ALT) and aspartate aminotransferase (AST) activities in plasma. Kidney function was evaluated by measuring blood urea nitrogen in plasma and γ-glutamyltransferase activity and glucose levels in urine.
# SF-539 = conditions: for CC50: read-out: LC50
# SW-620 = conditions: SW-620, Colon, NCI database, cited from earlier work; for CC50: read-out: LC50 (the source's name)
# U251 [7] = conditions: U251, CNS, NCI database, cited from earlier work; for CC50: read-out: LC50 (the source's name)
# HS 578T = conditions: Breast, NCI database, cited from earlier work; for CC50: read-out: LC50 (the source's name)
# HCT-116 [8] = conditions: HCT-116, Colon, NCI database, cited from earlier work; for CC50: read-out: LC50 (the source's name)
# COLO 205 = conditions: COLO 205, Colon, NCI database, cited from earlier work; for CC50: read-out: LC50 (the source's name)
# HCT-15 = conditions: HCT-15, Colon, NCI database, cited from earlier work; for CC50: read-out: LC50 (the source's name)
# MDA-MB-231/ATCC = conditions: Breast, NCI database, cited from earlier work; for CC50: read-out: LC50 (the source's name)
# SK-MEL-2 [9] = conditions: SK-MEL-2, Melanoma, NCI database, cited from earlier work; for CC50: read-out: LC50 (the source's name)
# NCI/ADR-RES [10] = conditions: Breast, NCI database, cited from earlier work; for CC50: read-out: LC50 (the source's name)
# NCI-H522 = conditions: NCI-H522, Non-Small Cell Lung, NCI database, cited from earlier work; for CC50: read-out: LC50 (the source's name)
# SN12C = conditions: Renal, NCI database, cited from earlier work; for CC50: read-out: LC50 (the source's name)
# M14 = conditions: M14, Melanoma, NCI database, cited from earlier work; for CC50: read-out: LC50 (the source's name)
# MDA-N [11] = conditions: Breast, NCI database, cited from earlier work; for CC50: read-out: LC50 (the source's name)
# [12] = HOP-92, Non-Small Cell Lung, 48 h
compound,measurement,setting,value
"CC(=O)C=CSc1ncnc2nc[nH]c12 [cis-AVTP, 6-(2-acetylvinylthio) purine]",GI50,"SK-MEL-28; Homo sapiens, SK-MEL-28, 48 h",1.84 µM
same,CC50,"SK-MEL-28; Homo sapiens, SK-MEL-28, 48 h",9.58 µM
same,TGI,"SK-MEL-28; SK-MEL-28, Melanoma, 48 h",4.19 µM
same,TGI,"HCT-116 [1]; HCT-116, Colon, 48 h",1.89 µM
same,GI50,"HCT-116 [1]; Homo sapiens, HCT-116, 48 h",0.51 µM
same,CC50,"HCT-116 [1]; Homo sapiens, HCT-116, 48 h",4.73 µM
same,TGI,HOP-92; [12],5.45 µM
same,GI50,"HOP-92; Homo sapiens, HOP-92, 48 h",1.69 µM
same,CC50,"HOP-92; Homo sapiens, HOP-92, 48 h",32.9 µM
same,TGI,"HL-60(TB); Leukemia, 48 h",4.95 µM
same,GI50,"SK-MEL-2 [2]; Homo sapiens, SK-MEL-2, 48 h",0.48 µM
same,CC50,"SK-MEL-2 [2]; Homo sapiens, SK-MEL-2, 48 h",40.7 µM
same,TGI,"SK-MEL-2 [2]; SK-MEL-2, Melanoma, 48 h",8.22 µM
same,TGI,MDA-N [3],4.48 µM
same,GI50,MDA-N [3]; Homo sapiens,0.55 µM
same,CC50,"MDA-N [3]; Homo sapiens, read-out: LC50 (the source's name)",> 100 µM
same,GI50,"U251 [4]; Homo sapiens, U-251, 48 h",2.74 µM
same,CC50,"U251 [4]; Homo sapiens, U-251, 48 h",56.3 µM
same,TGI,"U251 [4]; U251, CNS, 48 h",10.2 µM
same,GI50,"UACC-62; Homo sapiens, UACC-62, 48 h",0.23 µM
same,CC50,"UACC-62; Homo sapiens, UACC-62, 48 h",5.88 µM
same,TGI,"UACC-62; UACC-62, Melanoma, 48 h",1.10 µM
same,TGI,"NCI/ADR-RES [5]; Breast, 48 h",2.79 µM
same,GI50,"NCI/ADR-RES [5]; Homo sapiens, 48 h",0.51 µM
same,CC50,"NCI/ADR-RES [5]; Homo sapiens, 48 h, read-out: LC50",> 100 µM
same,ALT,"[6]; 8.5 μmol/kg, two cycles",7.8 ± 4.0^a SF U/ml
same,AST,"[6]; 8.5 μmol/kg, two cycles",55.1 ± 37.5^a SF U/ml
same,ALT,"[6]; 21.25 μmol/kg, one cycle","2.0 ± 2.0^a,* SF U/ml"
same,AST,"[6]; 21.25 μmol/kg, one cycle",25.5 ± 4.3^a SF U/ml
same,ALT,"[6]; 21.25 μmol/kg, two cycles","16.0 ± 4.3^a,# SF U/ml"
same,AST,"[6]; 21.25 μmol/kg, two cycles",60.2 ± 30.8^a SF U/ml
same,GI50,"SF-539; Homo sapiens, SF-539, 48 h",0.65 µM
same,CC50,"SF-539; Homo sapiens, SF-539, 48 h",11.8 µM
same,TGI,"SF-539; SF-539, CNS, 48 h",2.86 µM
"CC(=O)C=CSc1nc(N)nc2nc[nH]c12 [trans-AVTG, 6-(2-acetylvinylthio) guanine]",GI50,"SK-MEL-28; SK-MEL-28, Melanoma, 48 h",11.6 µM
same,TGI,"SK-MEL-28; SK-MEL-28, Melanoma, 48 h",24.8 µM
same,CC50,"SK-MEL-28; SK-MEL-28, Melanoma, 48 h",52.7 µM
same,GI50,"HCT-116 [1]; HCT-116, Colon, 48 h",0.67 µM
same,TGI,"HCT-116 [1]; HCT-116, Colon, 48 h",3.01 µM
same,CC50,"HCT-116 [1]; HCT-116, Colon, 48 h",14.7 µM
same,GI50,HOP-92; [12],3.01 µM
same,TGI,HOP-92; [12],19.4 µM
same,CC50,HOP-92; [12],50 µM
same,GI50,"HL-60(TB); Leukemia, 48 h",3.77 µM
same,TGI,"HL-60(TB); Leukemia, 48 h",16.6 µM
same,CC50,"HL-60(TB); read-out: LC50, Leukemia, 48 h",> 100 µM
same,GI50,"SK-MEL-2 [2]; SK-MEL-2, Melanoma, 48 h",1.02 µM
same,TGI,"SK-MEL-2 [2]; SK-MEL-2, Melanoma, 48 h",15.5 µM
same,CC50,"SK-MEL-2 [2]; SK-MEL-2, Melanoma, 48 h",98.7 µM
same,GI50,MDA-N [3],1.28 µM
same,TGI,MDA-N [3],10.3 µM
same,GI50,"U251 [4]; U251, CNS, 48 h",6.55 µM
same,TGI,"U251 [4]; U251, CNS, 48 h",48.4 µM
same,CC50,"U251 [4]; U251, CNS, 48 h",> 100 µM
same,GI50,"UACC-62; UACC-62, Melanoma, 48 h",0.28 µM
same,TGI,"UACC-62; UACC-62, Melanoma, 48 h",0.93 µM
same,CC50,"UACC-62; UACC-62, Melanoma, 48 h",24.9 µM
same,GI50,"NCI/ADR-RES [5]; Breast, 48 h",0.35 µM
same,TGI,"NCI/ADR-RES [5]; Breast, 48 h",7.40 µM
same,CC50,"NCI/ADR-RES [5]; read-out: LC50, Breast, 48 h",> 100 µM
same,GI50,"SF-539; SF-539, CNS, 48 h",0.81 µM
same,TGI,"SF-539; SF-539, CNS, 48 h",16.3 µM
same,CC50,"SF-539; SF-539, CNS, 48 h",> 100 µM
"Nc1nc2nc[nH]c2c(=S)[nH]1 [6-TG, 6-thioguanine]",GI50,SW-620,1.52 µM
same,TGI,SW-620,>100 µM
same,CC50,SW-620,> 100 µM
same,GI50,U251 [7],4.89 µM
same,TGI,U251 [7],>100 µM
same,CC50,U251 [7],> 100 µM
same,CC50,HS 578T,> 100 µM
same,GI50,HS 578T,7.26 µM
same,TGI,HS 578T,>100 µM
same,GI50,HCT-116 [8],0.53 µM
same,TGI,HCT-116 [8],16.2 µM
same,CC50,HCT-116 [8],> 100 µM
same,GI50,COLO 205,1.67 µM
same,TGI,COLO 205,8.75 µM
same,CC50,COLO 205,34.5 µM
same,GI50,HCT-15,1.07 µM
same,TGI,HCT-15,50.9 µM
same,CC50,HCT-15,> 100 µM
same,CC50,MDA-MB-231/ATCC,> 100 µM
same,GI50,MDA-MB-231/ATCC,1.94 µM
same,TGI,MDA-MB-231/ATCC,>100 µM
same,GI50,SK-MEL-2 [9],0.92 µM
same,TGI,SK-MEL-2 [9],10.5 µM
same,CC50,SK-MEL-2 [9],> 100 µM
same,CC50,NCI/ADR-RES [10],> 100 µM
same,GI50,NCI/ADR-RES [10],0.59 µM
same,TGI,NCI/ADR-RES [10],35.6 µM
same,GI50,NCI-H522,0.91 µM
same,TGI,NCI-H522,6.28 µM
same,CC50,NCI-H522,> 100 µM
same,ALT,"[6]; 8.5 μmol/kg, one cycle",9.2 ± 3.2 SF U/ml
same,AST,"[6]; 8.5 μmol/kg, one cycle",43.5 ± 24.8 SF U/ml
same,ALT,"[6]; 8.5 μmol/kg, two cycles",10.5 ± 6.6^a SF U/ml
same,AST,"[6]; 8.5 μmol/kg, two cycles",37.9 ± 12.2^a SF U/ml
same,ALT,"[6]; 21.25 μmol/kg, one cycle",15.0 ± 2.5^b SF U/ml
same,AST,"[6]; 21.25 μmol/kg, one cycle",44.4 ± 5.4^c SF U/ml
same,ALT,"[6]; 21.25 μmol/kg, two cycles",12.6 ± 4.8^a SF U/ml
same,AST,"[6]; 21.25 μmol/kg, two cycles",68.2 ± 54.5^a SF U/ml
same,CC50,SN12C,> 100 µM
same,GI50,SN12C,1.25 µM
same,TGI,SN12C,>100 µM
same,GI50,M14,0.58 µM
same,TGI,M14,14.3 µM
same,CC50,M14,> 100 µM
same,CC50,MDA-N [11],> 100 µM
same,GI50,MDA-N [11],1.01 µM
same,TGI,MDA-N [11],26.4 µM
"Sc1ncnc2nc[nH]c12 [6-MP, 6-mercaptopurine]",GI50,SW-620,6.82 µM
same,TGI,SW-620,>100 µM
same,CC50,SW-620,> 100 µM
same,GI50,U251 [7],11.8 µM
same,TGI,U251 [7],>100 µM
same,CC50,U251 [7],> 100 µM
same,CC50,HS 578T,> 100 µM
same,GI50,HS 578T,15.7 µM
same,TGI,HS 578T,>100 µM
same,TGI,HCT-116 [8],>100 µM
same,CC50,HCT-116 [8],> 100 µM
same,GI50,COLO 205,4.68 µM
same,TGI,COLO 205,>100 µM
same,CC50,COLO 205,> 100 µM
same,GI50,HCT-15,4.38 µM
same,TGI,HCT-15,>100 µM
same,CC50,HCT-15,> 100 µM
same,CC50,MDA-MB-231/ATCC,> 100 µM
same,GI50,MDA-MB-231/ATCC,16.4 µM
same,TGI,MDA-MB-231/ATCC,>100 µM
same,GI50,SK-MEL-2 [9],5.81 µM
same,TGI,SK-MEL-2 [9],>100 µM
same,CC50,SK-MEL-2 [9],> 100 µM
same,CC50,NCI/ADR-RES [10],> 100 µM
same,GI50,NCI/ADR-RES [10],3.18 µM
same,TGI,NCI/ADR-RES [10],>100 µM
same,GI50,NCI-H522,1.67 µM
same,TGI,NCI-H522,>100 µM
same,CC50,NCI-H522,> 100 µM
same,CC50,SN12C,> 100 µM
same,GI50,SN12C,22.6 µM
same,TGI,SN12C,>100 µM
same,GI50,M14,0.67 µM
same,TGI,M14,>100 µM
same,CC50,M14,> 100 µM
same,CC50,MDA-N [11],> 100 µM
same,GI50,MDA-N [11],1.5 µM
same,TGI,MDA-N [11],>100 µM
